Molecules are shown by their SMILES.

Series [1] relates to pancreatic cancer patient. The series can be described thus: Patient treated with neoadjuvant paricalcitol plus gemcitabine/abraxane. It is filed as in vivo, human. The method, then: Thus, in some examples, paricalcitol is administered at 5 or 10 μg IV three times weekly for two-three weeks before surgery. […] Paricalcitol can be given for 28 days approximately prior to planned surgery, and can be continued up to the day before surgery, since there is no relevant toxicity of this micronutrient. Last dose can be 24 h before surgery (if surgery is delayed, and additional days of therapy may be given to reach the day before surgery).

The conditions of series [2]: cited from earlier work.
Series [3] deals with PDA patients. The following applies: standard of care; cited from earlier work.
[4] abbreviates: 28 days paricalcitol with one cycle of gemcitabine/abraxane.

Consider `C[C@H](/C=C/[C@H](C)C(C)(C)O)[C@H]1CC[C@H]2/C(=C/C=C3C[C@@H](O)C[C@H](O)C3)CCC[C@]12C` [Paricalcitol, 19-nor-1,25-(OH)2-vitamin D2], for which, in series [1] (setting [4]), the “adverse clinical effects before surgery” value was “No adverse clinical effects” and the calcium levels result is listed as “no elevation calcium levels”. In series [1] (after surgery), the “histological analysis of resected tumor” value is recorded as “granulomas with few cancer cells”. The “serum CA 19-9 level after treatment” value in series [1] (reduced from 120 U/mL, normal range 0-37 U/mL) was 40 U/mL. In addition, the “phosphorus and calcium levels” value in series [2] (first 30 days of treatment) is “stable phosphorus and calcium levels”. Also, the mean plasma clearance in series [2] (over 600 patients) was 1.75 L/h.

With `Cl.Nc1ccn([C@@H]2O[C@H](CO)[C@@H](O)C2(F)F)c(=O)n1` [gemcitabine, 2′-Deoxy-2′,2′-difluorocytidine monohydrochloride], the “benefit to PDA patients” value in series [3] is recorded as 1.5 month.

(Values after US9895381B2, “Vitamin D receptor agonists to treat diseases involving CXCL12 activity” (Salk Institute for Biological Studies, priority 2013, dated 2018).)
